According to paper PMC10028969 (bioRxiv, 2023):

Assays:
[1] = HEK-293 counter-screen assay; type: cell-based; conditions: human, HEK-293 cells
[2] = tested on: T. b. brucei Lister 427; assay: Time-kill assays; type: cell-based; conditions: Trypanosoma brucei, 12 h, read-out: parasite viability
[3] = tested on: T. b. brucei Lister 427; assay: Mouse model of T. brucei infection; type: in vivo, Trypanosoma brucei brucei
[4] = tested on: T. b. brucei Lister 427; assay: SYBR Green viability assay with T. brucei; type: cell-based; conditions: Trypanosoma brucei, 72 h, read-out: T. b. brucei Lister 427 EC50 (nM) ± SD

**Q.** For `N=C(N)c1ccc(OCCCCCOc2ccc(C(=N)N)cc2)cc1` [Pentamidine, pentamidine], which CC50 at 48 h [1] is on record?
**A.** The CC50 at 48 h was > 4000 nM.

**Q.** And the viability at 4 µM [2]?
**A.** The viability at 4 µM was 52.8%.

**Q.** What about the mouse survival ([3]; 4 mg/kg i.p. on day 2, end of the study, without parasite recrudescence) of the same compound?
**A.** Its mouse survival is ≥ 15 day post-infection.

**Q.** And the “parasitemia within 24 h of administration” value ([3]; single i.p. dose 4 mg/kg on day 2 post-infection, BALB/c female mice)?
**A.** The value was < 2.5 × 10^5 parasites/ml.

**Q.** And the EC50 [4]?
**A.** Its EC50 is 69.6 ± 35.5 nM.
